According to US6737383B1, “Herbicidal oxadiazolidines” (priority 1999, dated 2004):

Columns and labels:
[1] = tested on: blackgrass; experiment: Test B pre/postemergence blackgrass; type: in vivo, Alopecurus myosuroides
Method in brief: (§1)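 Response is a visual 0-to-10 score relative to untreated plants, where 0 means no effect and 10 means complete control, taken twelve to sixteen days after application. Treatments went onto soil at planting and onto foliage of 1- to 4-leaf plants, using a surfactant-containing non-phytotoxic solvent.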

[2] = tested on: giant foxtail; experiment: Test B pre/postemergence giant foxtail; type: in vivo, Setaria faberii
Method in brief: as §1

[3] = tested on: smallflower flatsedge; experiment: Test B flood test smallflower flatsedge; type: in vivo, Cyperus difformis
Method in brief: (§2)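 Read-out is a visual response score from 0 (no effect) to 10 (complete control), assigned by comparison with untreated controls. Treatment was applied at the 2-leaf stage, and plants stayed in the greenhouse for twelve to sixteen days before scoring.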

[4] = tested on: sugar beet; experiment: Test B pre/postemergence sugar beet; type: in vivo, Beta vulgaris
Method in brief: as §1

[5] = tested on: bedstraw; experiment: Test B pre/postemergence bedstraw; type: in vivo, Galium aparine; conditions: Postemergence
Method in brief: as §1

[6] = tested on: wild oat; experiment: Test B pre/postemergence wild oat; type: in vivo, Avena fatua
Method in brief: as §1

[7] = tested on: pigweed; experiment: Test B pre/postemergence pigweed; type: in vivo, Amaranthus retroflexus
Method in brief: as §1

[8] = tested on: soybean; experiment: Test B pre/postemergence soybean; type: in vivo, Glycine max
Method in brief: as §1

[9] = tested on: cocklebur; experiment: Test B pre/postemergence cocklebur; type: in vivo, Xanthium strumarium
Method in brief: as §1

[10] = tested on: rice; experiment: Test B flood test rice; type: in vivo, Oryza sativa
Method in brief: as §2

[11] = tested on: rape; experiment: Test B pre/postemergence rape; type: in vivo, Brassica napus
Method in brief: as §1

[12] = tested on: surinam grass; experiment: Test B pre/postemergence surinam grass; type: in vivo, Brachiaria decumbens
Method in brief: as §1

[13] = tested on: purple nutsedge; experiment: Test B pre/postemergence purple nutsedge; type: in vivo, Cyperus rotundus
Method in brief: as §1

[14] = tested on: duck salad; experiment: Test B flood test duck salad; type: in vivo, Heteranthera limosa
Method in brief: as §2

[15] = tested on: crabgrass; experiment: Test B pre/postemergence crabgrass; type: in vivo, Digitaria sanguinalis
Method in brief: as §1

[16] = tested on: wheat; experiment: Test B pre/postemergence wheat; type: in vivo, Triticum aestivum
Method in brief: as §1

[17] = tested on: bamyardgrass; experiment: Test B flood test barnyardgrass; type: in vivo, Echinochloa crus-galli
Method in brief: as §2

[18] = tested on: corn; experiment: Test B pre/postemergence corn; type: in vivo, Zea mays
Method in brief: as §1

[19] = tested on: morningglory; experiment: Test B pre/postemergence morningglory; type: in vivo, Ipomoea hederacea
Method in brief: as §1

[20] = tested on: velvetleaf; experiment: Test B pre/postemergence velvetleaf; type: in vivo, Abutilon theophrasti
Method in brief: as §1

[21] = Postemergence, Rate 250 g/ha, scale 0 to 10, 0 is no effect, 10 is complete control
[22] = Postemergence, Rate 500 g/ha, scale of 0 to 10 where 0 is no effect and 10 is complete control
[23] = Preemergence, Rate 62 g/ha, scale 0 to 10 (0 no effect, 10 complete control)
[24] = Preemergence, Rate 125 g/ha, scale of 0 to 10 where 0 is no effect and 10 is complete control
[25] = Preemergence, Rate 250 g/ha, scale of 0 to 10 where 0 is no effect and 10 is complete control
[26] = Preemergence, Rate 500 g/ha, scale 0 to 10, 0 is no effect, 10 is complete control
[27] = Postemergence, Rate 125 g/ha, scale 0 to 10, 0 is no effect, 10 is complete control
[28] = Preemergence, Rate 250 g/ha, scale 0 to 10, 0 is no effect, 10 is complete control
[29] = Rate 62 g/ha, Postemergence, scale of 0 to 10 where 0 is no effect and 10 is complete control
[30] = Rate 62 g/ha, flood test species, Pre-emergence, visual evaluation after twelve to sixteen days
[31] = Rate 125 g/ha, under heading Pre-emergence, flood test species, visual evaluation after twelve to sixteen days
[32] = Rate 250 g/ha, Pre-emergence, flood-test species, scale 0 to 10, 0 is no effect, 10 is complete control
[33] = Rate 500 g/ha, Pre-emergence, flood test species, scale 0 to 10 (0 no effect, 10 complete control)

For `CC(C)N(C(=O)n1oc(=O)n(C(C)CCl)c1=O)c1ccccc1` (centres unmarked) [Compound 411], the “Plant response rating, Blackgrass” value [1, 21] was 9, the “Blackgrass plant response rating” value [1, 22] was 9 and the “Plant response rating, Blackgrass” value [1, 23] was 6. For the same compound, the “Plant response rating, Blackgrass” value [1, 24] was 7, the “Blackgrass plant response rating” value [1, 25] was 9 and the “Blackgrass plant response rating” value [1, 26] was 10. The “Plant response rating, Giant foxtail” value [2, 27] was 9, the “Plant response rating, Giant foxtail” value [2, 21] was 9 and the “Giant foxtail plant response rating” value [2, 22] was 9. For the same compound, the “Plant response rating, Giant foxtail” value [2, 23] was 10, the “Plant response rating, Giant foxtail” value [2, 24] was 10 and the “Giant foxtail plant response rating” value [2, 28] was 10. For the same compound, the “Giant foxtail plant response rating” value [2, 26] was 10, the “Giant foxtail plant response rating” value [2, 29] was 6 and the “Plant response rating, S. Flatsedge (0 to 10 scale, 0 is no effect, 10 is complete control)” value [3, 30] was 0. For the same compound, the “S. Flatsedge plant response rating (0 to 10 scale, 0 is no effect, 10 is complete control)” value [3, 31] was 0, the “S. Flatsedge plant response rating” value [3, 32] was 9 and the “S. Flatsedge plant response rating” value [3, 33] was 9. For the same compound, the “Plant response rating, Sugarbeets” value [4, 21] was 4, the “Sugarbeets plant response rating” value [4, 22] was 7 and the “Plant response rating, Sugarbeets” value [4, 23] was 5. For the same compound, the “Plant response rating, Sugarbeets” value [4, 24] was 8, the “Sugarbeets plant response rating” value [4, 28] was 8 and the “Sugarbeets plant response rating” value [4, 26] was 8. The “Plant response rating, Bedstraw” value ([5]; Rate 250 g/ha, scale 0 to 10, 0 is no effect, 10 is complete control) was 7, the “Bedstraw plant response rating” value ([5]; Rate 500 g/ha, scale of 0 to 10 where 0 is no effect and 10 is complete control) was 8 and the “Wild oats plant response rating” value [6, 22] was 9. For the same compound, the “Plant response rating, Wild oats” value [6, 23] was 0, the “Plant response rating, Wild oats” value [6, 24] was 5 and the “Wild oats plant response rating” value [6, 28] was 8. The “Wild oats plant response rating” value [6, 26] was 10, the “Plant response rating, Redroot pigweed” value [7, 21] was 7 and the “Redroot pigweed plant response rating” value [7, 22] was 9. For the same compound, the “Plant response rating, Redroot pigweed” value [7, 23] was 3, the “Plant response rating, Redroot pigweed” value [7, 24] was 8 and the “Redroot pigweed plant response rating” value [7, 28] was 10. The “Redroot pigweed plant response rating” value [7, 26] was 10, the “Plant response rating, Soybean” value [8, 21] was 5 and the “Soybean plant response rating” value [8, 22] was 7. For the same compound, the “Plant response rating, Soybean” value [8, 23] was 0, the “Plant response rating, Soybean” value [8, 24] was 0 and the “Soybean plant response rating” value [8, 28] was 0. The “Soybean plant response rating” value [8, 26] was 1, the “Plant response rating, Cocklebur” value [9, 27] was 1 and the “Plant response rating, Cocklebur” value [9, 21] was 3. For the same compound, the “Cocklebur plant response rating” value [9, 22] was 3, the “Plant response rating, Cocklebur” value [9, 23] was 0 and the “Plant response rating, Cocklebur” value [9, 24] was 0. The “Cocklebur plant response rating” value [9, 28] was 0, the “Cocklebur plant response rating” value [9, 26] was 0 and the “Cocklebur plant response rating” value [9, 29] was 1. The “Plant response rating, Rice (0 to 10 scale, 0 is no effect, 10 is complete control)” value [10, 30] was 0, the “Rice plant response rating (0 to 10 scale, 0 is no effect, 10 is complete control)” value [10, 31] was 0 and the “Rice plant response rating” value [10, 32] was 0. For the same compound, the “Rice plant response rating” value [10, 33] was 0, the “Plant response rating, Rape” value [11, 21] was 7 and the “Rape plant response rating” value [11, 22] was 8. The “Plant response rating, Rape” value [11, 23] was 2, the “Plant response rating, Rape” value [11, 24] was 8 and the “Rape plant response rating” value [11, 28] was 9. For the same compound, the “Rape plant response rating” value [11, 26] was 10, the “Plant response rating, B. signalgrass” value [12, 27] was 3 and the “Plant response rating, B. signalgrass” value [12, 21] was 5. The “B. signalgrass plant response rating” value [12, 22] was 9, the “Plant response rating, B. signalgrass” value [12, 23] was 0 and the “Plant response rating, B. signalgrass” value [12, 24] was 3. The “B. signalgrass plant response rating” value [12, 25] was 7, the “B. signalgrass plant response rating” value ([12]; Preemergence, Rate 500 g/ha, scale of 0 to 10 where 0 is no effect and 10 is complete control) was 10 and the “B. signalgrass plant response rating” value [12, 29] was 0. For the same compound, the “Plant response rating, Nutsedge” value [13, 21] was 0, the “Nutsedge plant response rating” value [13, 22] was 0 and the “Plant response rating, Nutsedge” value [13, 23] was 0. The “Plant response rating, Nutsedge” value [13, 24] was 0, the “Nutsedge plant response rating” value [13, 28] was 0 and the “Nutsedge plant response rating” value [13, 26] was 2. The “Plant response rating, Ducksalad (0 to 10 scale, 0 is no effect, 10 is complete control)” value [14, 30] was 0, the “Ducksalad plant response rating (0 to 10 scale, 0 is no effect, 10 is complete control)” value [14, 31] was 0 and the “Ducksalad plant response rating” value [14, 32] was 2. For the same compound, the “Ducksalad plant response rating” value [14, 33] was 2, the “Plant response rating, Crabgrass” value [15, 27] was 4 and the “Plant response rating, Crabgrass” value [15, 21] was 8. For the same compound, the “Crabgrass plant response rating” value [15, 22] was 8, the “Plant response rating, Crabgrass” value [15, 23] was 9 and the “Plant response rating, Crabgrass” value [15, 24] was 10. The “Crabgrass plant response rating” value [15, 28] was 10, the “Crabgrass plant response rating” value [15, 26] was 10 and the “Crabgrass plant response rating” value [15, 29] was 4. The “Wheat plant response rating” value [16, 22] was 8, the “Plant response rating, Wheat” value [16, 23] was 0 and the “Plant response rating, Wheat” value [16, 24] was 4. The “Wheat plant response rating” value [16, 28] was 7, the “Wheat plant response rating” value [16, 26] was 10 and the “Plant response rating, Barnyardgrass (0 to 10 scale, 0 is no effect, 10 is complete control)” value [17, 30] was 0. For the same compound, the “Barnyardgrass plant response rating (0 to 10 scale, 0 is no effect, 10 is complete control)” value [17, 31] was 8, the “Barnyardgrass plant response rating” value [17, 32] was 9 and the “Barnyardgrass plant response rating” value [17, 33] was 9. The “Plant response rating, Corn” value [18, 27] was 0, the “Plant response rating, Corn” value [18, 21] was 0 and the “Corn plant response rating” value [18, 22] was 4. The “Plant response rating, Corn” value [18, 23] was 0, the “Plant response rating, Corn” value [18, 24] was 2 and the “Corn plant response rating” value [18, 28] was 8. For the same compound, the “Corn plant response rating” value [18, 26] was 9, the “Corn plant response rating” value [18, 29] was 0 and the “Plant response rating, Morningglory” value [19, 21] was 6. For the same compound, the “Morningglory plant response rating” value [19, 22] was 6, the “Plant response rating, Morningglory” value [19, 23] was 0 and the “Plant response rating, Morningglory” value [19, 24] was 1. For the same compound, the “Morningglory plant response rating” value [19, 28] was 2, the “Morningglory plant response rating” value [19, 26] was 4 and the “Plant response rating, Velvetleaf” value [20, 21] was 4. The “Velvetleaf plant response rating” value [20, 22] was 6, the “Plant response rating, Velvetleaf” value [20, 23] was 2 and the “Plant response rating, Velvetleaf” value [20, 24] was 5. For the same compound, the “Velvetleaf plant response rating” value [20, 28] was 6 and the “Velvetleaf plant response rating” value [20, 26] was 8.
